Data taken from ChEMBL document CHEMBL2176994, “Radiosynthesis of PET radiotracer as a prodrug for imaging group II metabotropic glutamate receptors in vivo” (Bioorg Med Chem Lett, 2012).
pEC50, pIC50, pKi: −log10 of the molar value.

Legend:
[1] = biological target: T1, Metabotropic glutamate receptor 3 (Homo sapiens, UniProt Q14832); test: Agonist activity at mGLUR3 expressed in CHO cells; type: functional, cell-based
[2] = biological target: T2, Metabotropic glutamate receptor 2 (Homo sapiens, UniProt Q14416); test: Agonist activity at mGLUR2 expressed in CHO cells; type: functional, cell-based
T2 sequence (Q14416 whole entry): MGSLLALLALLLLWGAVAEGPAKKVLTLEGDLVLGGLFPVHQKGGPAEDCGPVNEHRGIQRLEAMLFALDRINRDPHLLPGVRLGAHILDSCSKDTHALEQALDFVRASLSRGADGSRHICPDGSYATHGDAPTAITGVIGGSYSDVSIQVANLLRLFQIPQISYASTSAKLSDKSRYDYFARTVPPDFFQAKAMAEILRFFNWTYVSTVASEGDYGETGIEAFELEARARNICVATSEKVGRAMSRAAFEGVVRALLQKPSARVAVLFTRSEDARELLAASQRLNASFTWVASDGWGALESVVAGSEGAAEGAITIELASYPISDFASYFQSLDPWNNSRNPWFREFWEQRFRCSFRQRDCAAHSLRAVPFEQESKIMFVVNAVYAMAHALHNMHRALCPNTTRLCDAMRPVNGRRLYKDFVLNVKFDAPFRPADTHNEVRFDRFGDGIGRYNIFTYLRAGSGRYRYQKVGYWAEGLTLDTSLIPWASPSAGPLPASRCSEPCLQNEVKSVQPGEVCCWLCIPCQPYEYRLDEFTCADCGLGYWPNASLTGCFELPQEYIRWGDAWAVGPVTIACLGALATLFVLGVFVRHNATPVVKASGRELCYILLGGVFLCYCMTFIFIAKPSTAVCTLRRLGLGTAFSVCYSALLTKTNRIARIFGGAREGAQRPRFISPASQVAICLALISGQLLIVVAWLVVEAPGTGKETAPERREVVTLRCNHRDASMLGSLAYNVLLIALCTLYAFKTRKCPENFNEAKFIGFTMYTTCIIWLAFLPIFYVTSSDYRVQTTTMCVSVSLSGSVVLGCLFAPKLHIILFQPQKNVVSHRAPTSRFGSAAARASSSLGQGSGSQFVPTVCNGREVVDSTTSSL

[3] = biological target: T1, Metabotropic glutamate receptor 3; test: Antagonist activity at mGLUR3 expressed in CHO cells assessed as inhibition of glutamate-induced inhibition of forskolin-stimulated cAMP production; type: functional, cell-based
[4] = biological target: T1, Metabotropic glutamate receptor 3; test: Binding affinity to mGLUR3
[5] = biological target: T2, Metabotropic glutamate receptor 2; test: Antagonist activity at mGLUR2 expressed in CHO cells assessed as inhibition of glutamate-induced inhibition of forskolin-stimulated cAMP production
[6] = biological target: T2, Metabotropic glutamate receptor 2; test: Binding affinity to mGLUR2
[7] = biological target: Metabotropic glutamate receptor 3 (Rattus norvegicus, UniProt P31422); test: Agonist activity at mGLUR3 in rat cerebral cortex assessed as inhibition of forskolin-stimulated cAMP production; type: functional, tissue-based
Chain of Metabotropic glutamate receptor 3 (Rattus norvegicus, UniProt P31422) (P31422 whole entry): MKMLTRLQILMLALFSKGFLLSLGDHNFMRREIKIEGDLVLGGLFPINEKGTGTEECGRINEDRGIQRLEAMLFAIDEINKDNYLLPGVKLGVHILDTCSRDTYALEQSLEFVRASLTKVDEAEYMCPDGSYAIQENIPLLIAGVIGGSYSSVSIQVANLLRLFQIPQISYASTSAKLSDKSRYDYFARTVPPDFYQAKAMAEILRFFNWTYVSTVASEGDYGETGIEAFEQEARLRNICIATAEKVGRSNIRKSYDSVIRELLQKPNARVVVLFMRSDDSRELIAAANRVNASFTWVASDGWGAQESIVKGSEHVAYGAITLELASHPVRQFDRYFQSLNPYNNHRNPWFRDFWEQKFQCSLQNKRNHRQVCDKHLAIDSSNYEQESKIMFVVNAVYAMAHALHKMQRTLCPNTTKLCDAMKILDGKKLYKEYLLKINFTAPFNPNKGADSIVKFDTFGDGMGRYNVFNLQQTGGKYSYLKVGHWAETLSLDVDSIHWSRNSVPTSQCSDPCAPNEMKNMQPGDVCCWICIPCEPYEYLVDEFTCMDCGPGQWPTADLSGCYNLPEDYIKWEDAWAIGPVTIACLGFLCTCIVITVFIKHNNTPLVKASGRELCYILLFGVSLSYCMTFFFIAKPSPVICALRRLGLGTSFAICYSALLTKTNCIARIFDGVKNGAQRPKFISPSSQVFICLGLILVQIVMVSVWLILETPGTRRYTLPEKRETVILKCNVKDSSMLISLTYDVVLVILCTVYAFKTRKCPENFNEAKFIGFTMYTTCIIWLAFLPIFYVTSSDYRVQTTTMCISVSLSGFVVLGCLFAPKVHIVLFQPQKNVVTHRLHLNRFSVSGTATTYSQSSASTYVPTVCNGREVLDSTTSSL

[8] = Drug uptake in Sprague-Dawley rat olfactory lobe at […], iv from 20 to 40 mins by microPET analysis in presence of LY341495; type: ADME, organism-based; conditions: in vivo
Cerebellum = test: Drug uptake in Sprague-Dawley rat cerebellum at […], iv from 20 to 40 mins by microPET analysis in presence of LY341495; type: ADME, organism-based; conditions: in vivo
[9] = Drug uptake in Sprague-Dawley rat motor cortex at […], iv from 20 to 40 mins by microPET analysis in presence of LY341495; type: ADME, organism-based; conditions: in vivo
[10] = Drug uptake in Sprague-Dawley rat cingulate cortex at […], iv from 20 to 40 mins by microPET analysis in presence of LY341495; type: ADME, organism-based; conditions: in vivo
Striatum [11] = test: Drug uptake in Sprague-Dawley rat striatum at 0.4 uCi, iv from 20 to 40 mins by microPET analysis in presence of LY341495; type: ADME, organism-based; conditions: in vivo
Thalamus = test: Drug uptake in Sprague-Dawley rat thalamus at 0.4 uCi, iv from 20 to 40 mins by microPET analysis in presence of LY341495; type: ADME, organism-based; conditions: in vivo
Hippocampus [12] = test: Drug uptake in Sprague-Dawley rat hippocampus at […], iv from 20 to 40 mins by microPET analysis in presence of LY341495; type: ADME, organism-based; conditions: in vivo
Brain [13] = test: Drug uptake in Sprague-Dawley rat brain at […], iv from 20 to 40 mins by microPET analysis in presence of LY341495; type: ADME, organism-based; conditions: in vivo
Brain [14] = test: Drug uptake in Sprague-Dawley rat brain at […], iv at 2 mins by microPET analysis; type: ADME, organism-based; conditions: in vivo
Striatum [15] = test: Drug uptake in Sprague-Dawley rat striatum at […], iv from 1 to 40 mins by microPET analysis; type: ADME, organism-based; conditions: in vivo
Hippocampus [16] = test: Drug uptake in Sprague-Dawley rat hippocampus at […], iv from 1 to 40 mins by microPET analysis; type: ADME, organism-based; conditions: in vivo
Cortex = test: Drug uptake in Sprague-Dawley rat cortex at […], iv from 1 to 40 mins by microPET analysis; type: ADME, organism-based; conditions: in vivo
Brain [17] = test: Drug uptake in Sprague-Dawley rat brain at […], iv from 1 to 40 mins by microPET analysis; type: ADME, organism-based; conditions: in vivo
Brain [18] = test: Drug uptake in Sprague-Dawley rat brain at […], iv from 20 to 25 mins by microPET analysis; type: ADME, organism-based; conditions: in vivo

T1 sequence (Q14832 whole entry): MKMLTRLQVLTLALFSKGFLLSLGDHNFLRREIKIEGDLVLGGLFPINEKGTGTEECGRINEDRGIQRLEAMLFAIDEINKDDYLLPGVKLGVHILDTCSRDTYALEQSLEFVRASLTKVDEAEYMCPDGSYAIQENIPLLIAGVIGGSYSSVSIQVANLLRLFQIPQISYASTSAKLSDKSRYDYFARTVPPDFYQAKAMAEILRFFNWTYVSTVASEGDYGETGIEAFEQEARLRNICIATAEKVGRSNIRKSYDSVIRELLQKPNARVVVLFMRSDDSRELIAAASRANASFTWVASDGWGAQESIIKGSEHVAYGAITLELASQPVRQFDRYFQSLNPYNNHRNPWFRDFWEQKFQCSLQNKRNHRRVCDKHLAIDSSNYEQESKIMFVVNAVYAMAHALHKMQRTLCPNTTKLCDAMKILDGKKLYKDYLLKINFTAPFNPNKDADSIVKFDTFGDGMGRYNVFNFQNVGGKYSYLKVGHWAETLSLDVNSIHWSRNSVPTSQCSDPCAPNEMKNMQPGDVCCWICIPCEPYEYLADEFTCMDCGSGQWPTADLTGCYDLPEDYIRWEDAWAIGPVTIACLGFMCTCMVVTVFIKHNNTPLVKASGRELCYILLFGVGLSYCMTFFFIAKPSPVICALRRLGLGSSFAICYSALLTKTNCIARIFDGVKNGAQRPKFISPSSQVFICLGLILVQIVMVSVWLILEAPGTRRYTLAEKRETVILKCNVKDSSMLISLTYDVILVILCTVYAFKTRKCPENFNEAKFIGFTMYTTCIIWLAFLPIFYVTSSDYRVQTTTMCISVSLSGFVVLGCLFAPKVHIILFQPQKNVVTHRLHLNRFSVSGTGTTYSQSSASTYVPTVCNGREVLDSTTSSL

N[C@@]1(C(=O)O)CC(=O)[C@@H]2[C@H]1[C@@]2(F)C(=O)O
pEC50 [1]: 8.68 | pEC50 [2]: 9.24

N[C@]1(C(=O)O)[C@H]2[C@@H](C[C@H]1OCc1ccc(Cl)c(Cl)c1)[C@]2(F)C(=O)O
pIC50 [3]: 7.62 | pKi [4]: 8.35 | pIC50 [5]: 7.70 | pKi [6]: 8.66

N[C@@]1(C(=O)O)CC[C@H]2[C@H](C(=O)O)[C@H]21
pEC50 [7]: 7.42

COC(=O)[C@H]1C[C@@H]1[C@@](N)(CCc1cccc(O[11CH3])c1)C(=O)OC
Drug uptake [8]: Active | Drug uptake (Cerebellum): Not Active | Drug uptake [9]: Not Active | Drug uptake [10]: Not Active | Drug uptake (Striatum [11]): Not Active | Drug uptake (Thalamus): Not Active | Drug uptake (Hippocampus [12]): Not Active | Drug uptake (Brain [13]): Not Active | Drug uptake (Brain [14]): 2.5 %ID/cm3 | Drug uptake (Striatum [15]): Active | Drug uptake (Hippocampus [16]): Active | Drug uptake (Cortex): Active | Drug uptake (Brain [17]): Active

[11CH3]Oc1cccc(CC[C@@](N)(C(=O)O)[C@H]2C[C@@H]2C(=O)O)c1
Drug uptake (Brain [18]): Not Active
